Data as given in patent US20240210412A1, “SULFONYL-TRIAZOLE COMPOUNDS USEFUL AS LIGANDS AND INHIBITORS OF PROSTAGLANDIN REDUCTASE 2” (University of Virginia Patent Foundation, priority 2021, published 2024).

What was measured:
Assay in all cases: SILAC LC-MS ABPP
Format in all cases: cell-based
Settings in all cases: 25 μM 2 h, live DM93 cells
P78537 = molecular target: T1, P78537 (Homo sapiens, UniProt P78537)
T1 construct: performing SuTEx compound screening directly in cells; endogenous in cells; host or cells: DM93 cells (SILAC)
T1 sequence (P78537 whole entry): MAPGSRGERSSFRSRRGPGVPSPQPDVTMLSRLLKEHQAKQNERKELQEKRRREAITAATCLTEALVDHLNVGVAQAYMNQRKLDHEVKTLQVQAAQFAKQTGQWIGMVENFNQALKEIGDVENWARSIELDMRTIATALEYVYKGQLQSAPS
Summary of the method: (§1)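 First, heavy-labelled DM93 cells were exposed to SuTEx ligand (25 μM) and light cells to DMSO, 2 h at 37 °C. Second, HHS-475 (100 μM) was added for 2 h. Third, soluble lysates were clicked to desthiobiotin-azide, pooled 1:1, trypsin-digested, avidin-enriched and analysed by LC-MS/MS.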

P31948 = molecular target: T2, P31948 (Homo sapiens, UniProt P31948)
T2 construct: endogenous in cells; host or cells: DM93 (SILAC)
Summary of the method: as §1

Q92620 = molecular target: T3, Q92620 (Homo sapiens, UniProt Q92620)
T3 construct: endogenous in cells; host or cells: DM93 cells (SILAC), live-cell treatment
T3 sequence (Q92620 whole entry): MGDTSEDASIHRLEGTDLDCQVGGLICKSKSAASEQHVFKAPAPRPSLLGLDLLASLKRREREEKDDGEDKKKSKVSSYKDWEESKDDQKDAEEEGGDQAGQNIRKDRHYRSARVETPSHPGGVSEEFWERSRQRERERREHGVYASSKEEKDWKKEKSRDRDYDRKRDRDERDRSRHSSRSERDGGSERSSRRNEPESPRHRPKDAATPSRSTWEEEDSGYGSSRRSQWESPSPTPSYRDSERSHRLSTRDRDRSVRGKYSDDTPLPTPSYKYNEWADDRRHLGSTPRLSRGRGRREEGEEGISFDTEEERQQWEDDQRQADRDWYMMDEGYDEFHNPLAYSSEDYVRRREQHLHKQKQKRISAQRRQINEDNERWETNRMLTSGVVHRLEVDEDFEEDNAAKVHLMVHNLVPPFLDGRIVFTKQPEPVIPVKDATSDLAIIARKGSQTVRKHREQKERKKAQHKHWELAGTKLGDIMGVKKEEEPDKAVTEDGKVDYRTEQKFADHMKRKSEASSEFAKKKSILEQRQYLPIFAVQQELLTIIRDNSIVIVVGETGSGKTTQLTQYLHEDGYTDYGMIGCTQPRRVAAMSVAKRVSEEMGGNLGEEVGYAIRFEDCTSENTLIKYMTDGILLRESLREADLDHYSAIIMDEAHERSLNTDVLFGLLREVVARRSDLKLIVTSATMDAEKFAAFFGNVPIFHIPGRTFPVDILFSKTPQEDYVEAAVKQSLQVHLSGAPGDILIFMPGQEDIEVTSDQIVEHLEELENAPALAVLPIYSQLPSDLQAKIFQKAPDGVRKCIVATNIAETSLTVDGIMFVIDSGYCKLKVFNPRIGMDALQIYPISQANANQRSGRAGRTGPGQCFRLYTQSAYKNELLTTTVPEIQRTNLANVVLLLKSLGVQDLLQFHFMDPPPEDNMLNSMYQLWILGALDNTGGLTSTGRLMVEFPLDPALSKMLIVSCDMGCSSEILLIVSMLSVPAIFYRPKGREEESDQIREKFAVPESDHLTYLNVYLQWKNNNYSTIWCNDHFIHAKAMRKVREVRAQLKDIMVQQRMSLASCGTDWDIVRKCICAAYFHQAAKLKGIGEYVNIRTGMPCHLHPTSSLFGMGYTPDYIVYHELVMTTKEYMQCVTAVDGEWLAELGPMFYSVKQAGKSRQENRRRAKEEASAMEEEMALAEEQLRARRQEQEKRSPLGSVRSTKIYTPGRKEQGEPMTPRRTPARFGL
Summary of the method: as §1

O00267 = molecular target: T4, O00267 (Homo sapiens, UniProt O00267)
T4 construct: endogenous in cells; host or cells: DM93
Summary of the method: as §1

P62847 = molecular target: T5, P62847 (Homo sapiens, UniProt P62847)
T5 construct: performing SuTEx compound screening directly in cells; endogenous in cells; host or cells: DM93 cells (SILAC)
Summary of the method: as §1

P56945 = molecular target: T6, P56945 (Homo sapiens, UniProt P56945)
T6 construct: Probe-modified proteins from the soluble fraction were conjugated to a desthiobiotin-azide tag; endogenous in cells; host or cells: DM93 cells (SILAC)
T6 sequence (P56945 whole entry): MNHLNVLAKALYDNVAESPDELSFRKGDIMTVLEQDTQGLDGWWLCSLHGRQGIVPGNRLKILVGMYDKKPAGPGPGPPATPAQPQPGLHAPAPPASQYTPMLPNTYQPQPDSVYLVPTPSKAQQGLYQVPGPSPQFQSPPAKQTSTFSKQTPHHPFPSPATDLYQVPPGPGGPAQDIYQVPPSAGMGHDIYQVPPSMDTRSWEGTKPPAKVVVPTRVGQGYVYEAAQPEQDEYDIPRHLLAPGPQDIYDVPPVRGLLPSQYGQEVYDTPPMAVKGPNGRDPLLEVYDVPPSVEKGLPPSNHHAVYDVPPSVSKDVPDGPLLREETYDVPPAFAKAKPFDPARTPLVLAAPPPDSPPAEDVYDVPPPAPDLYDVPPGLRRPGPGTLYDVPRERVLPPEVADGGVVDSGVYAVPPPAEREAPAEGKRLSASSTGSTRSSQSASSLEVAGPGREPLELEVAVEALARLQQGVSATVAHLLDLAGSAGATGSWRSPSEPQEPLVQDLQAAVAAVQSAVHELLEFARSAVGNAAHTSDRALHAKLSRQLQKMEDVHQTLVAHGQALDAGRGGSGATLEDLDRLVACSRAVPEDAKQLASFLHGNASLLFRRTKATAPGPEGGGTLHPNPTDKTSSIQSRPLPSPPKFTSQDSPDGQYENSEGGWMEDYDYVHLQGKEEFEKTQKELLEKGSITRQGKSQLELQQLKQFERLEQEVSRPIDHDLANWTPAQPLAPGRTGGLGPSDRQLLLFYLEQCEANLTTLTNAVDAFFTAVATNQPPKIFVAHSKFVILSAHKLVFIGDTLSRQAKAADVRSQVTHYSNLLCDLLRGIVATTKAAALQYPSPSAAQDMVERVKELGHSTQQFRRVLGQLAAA
Summary of the method: as §1

P07814 = molecular target: T7, P07814 (Homo sapiens, UniProt P07814)
T7 construct: endogenous in cells; host or cells: DM93 cells (SILAC)
Summary of the method: as §1

P12268 = molecular target: T8, P12268 (Homo sapiens, UniProt P12268)
T8 construct: endogenous in cells; host or cells: DM93 cells (SILAC)
T8 sequence (P12268 2-514 limits assumed): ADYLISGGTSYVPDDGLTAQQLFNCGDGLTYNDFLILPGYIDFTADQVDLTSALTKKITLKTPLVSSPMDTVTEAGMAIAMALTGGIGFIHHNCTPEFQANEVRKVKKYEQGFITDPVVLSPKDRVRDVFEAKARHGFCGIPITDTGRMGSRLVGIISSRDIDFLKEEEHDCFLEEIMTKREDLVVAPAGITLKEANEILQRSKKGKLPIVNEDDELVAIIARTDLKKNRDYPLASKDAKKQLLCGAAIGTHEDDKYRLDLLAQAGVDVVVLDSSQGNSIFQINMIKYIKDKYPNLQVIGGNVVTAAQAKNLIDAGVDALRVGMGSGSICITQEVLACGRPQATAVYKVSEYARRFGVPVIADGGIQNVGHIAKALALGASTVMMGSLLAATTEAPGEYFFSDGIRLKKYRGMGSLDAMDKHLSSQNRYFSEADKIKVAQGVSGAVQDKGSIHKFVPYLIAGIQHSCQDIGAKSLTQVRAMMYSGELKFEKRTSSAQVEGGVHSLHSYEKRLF
Summary of the method: as §1

P26358 = molecular target: T9, P26358 (Homo sapiens, UniProt P26358)
T9 construct: endogenous in cells; host or cells: DM93 (SILAC)
Summary of the method: as §1

P36507 = molecular target: T10, P36507 (Homo sapiens, UniProt P36507)
T10 construct: endogenous in cells; host or cells: DM93 (SILAC)
T10 sequence (P36507 whole entry): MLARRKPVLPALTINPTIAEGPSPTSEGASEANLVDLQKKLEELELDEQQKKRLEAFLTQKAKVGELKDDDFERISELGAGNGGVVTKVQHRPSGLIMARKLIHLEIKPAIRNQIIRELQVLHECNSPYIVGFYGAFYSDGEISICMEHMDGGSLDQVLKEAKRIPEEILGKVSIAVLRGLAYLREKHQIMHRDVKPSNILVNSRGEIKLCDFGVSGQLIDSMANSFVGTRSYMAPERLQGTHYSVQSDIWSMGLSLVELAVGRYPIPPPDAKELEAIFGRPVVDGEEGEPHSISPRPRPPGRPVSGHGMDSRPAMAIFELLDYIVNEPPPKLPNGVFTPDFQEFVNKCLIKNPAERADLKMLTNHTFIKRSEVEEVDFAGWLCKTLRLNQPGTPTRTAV
Summary of the method: as §1

P62979 = molecular target: T11, P62979 (Homo sapiens, UniProt P62979)
T11 construct: performing SuTEx compound screening directly in cells; endogenous in cells; host or cells: DM93 cells (SILAC)
Summary of the method: as §1

Q14914 = molecular target: T12, Q14914 (Homo sapiens, UniProt Q14914)
T12 construct: performing SuTEx compound screening directly in cells; endogenous in cells; host or cells: DM93 cells (SILAC), soluble fraction
Summary of the method: as §1

P26599 = molecular target: T13, P26599 (Homo sapiens, UniProt P26599)
T13 construct: endogenous in cells; host or cells: DM93 (SILAC)
Summary of the method: as §1

P68104 = molecular target: T14, P68104 (Homo sapiens, UniProt P68104)
T14 construct: performing SuTEx compound screening directly in cells; endogenous in cells; host or cells: DM93 cells (SILAC)
T14 sequence (P68104 whole entry): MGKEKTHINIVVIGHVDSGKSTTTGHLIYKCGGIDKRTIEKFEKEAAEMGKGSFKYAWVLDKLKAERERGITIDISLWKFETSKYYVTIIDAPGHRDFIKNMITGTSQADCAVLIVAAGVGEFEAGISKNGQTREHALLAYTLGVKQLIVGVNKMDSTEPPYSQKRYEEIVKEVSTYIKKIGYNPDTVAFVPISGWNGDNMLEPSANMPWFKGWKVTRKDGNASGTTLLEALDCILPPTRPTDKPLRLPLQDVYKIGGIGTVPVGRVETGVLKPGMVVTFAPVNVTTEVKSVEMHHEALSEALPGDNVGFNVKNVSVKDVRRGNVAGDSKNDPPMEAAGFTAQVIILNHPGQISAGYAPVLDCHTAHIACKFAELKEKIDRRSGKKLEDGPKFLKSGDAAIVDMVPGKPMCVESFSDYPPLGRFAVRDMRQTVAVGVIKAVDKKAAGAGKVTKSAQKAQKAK
Summary of the method: as §1

Q8WVJ2 = molecular target: T15, Q8WVJ2 (Homo sapiens, UniProt Q8WVJ2)
T15 construct: endogenous in cells; host or cells: DM93 cells (SILAC), live-cell treatment
T15 sequence (Q8WVJ2 whole entry): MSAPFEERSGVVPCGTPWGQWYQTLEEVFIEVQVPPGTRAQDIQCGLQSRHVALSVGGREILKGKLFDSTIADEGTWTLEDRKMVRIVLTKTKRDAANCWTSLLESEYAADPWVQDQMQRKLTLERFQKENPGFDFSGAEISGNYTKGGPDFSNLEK
Summary of the method: as §1

Q15020 = molecular target: T16, Q15020 (Homo sapiens, UniProt Q15020)
T16 construct: performing SuTEx compound screening directly in cells; endogenous in cells; host or cells: DM93 cells (SILAC), soluble fraction
T16 sequence (Q15020 whole entry): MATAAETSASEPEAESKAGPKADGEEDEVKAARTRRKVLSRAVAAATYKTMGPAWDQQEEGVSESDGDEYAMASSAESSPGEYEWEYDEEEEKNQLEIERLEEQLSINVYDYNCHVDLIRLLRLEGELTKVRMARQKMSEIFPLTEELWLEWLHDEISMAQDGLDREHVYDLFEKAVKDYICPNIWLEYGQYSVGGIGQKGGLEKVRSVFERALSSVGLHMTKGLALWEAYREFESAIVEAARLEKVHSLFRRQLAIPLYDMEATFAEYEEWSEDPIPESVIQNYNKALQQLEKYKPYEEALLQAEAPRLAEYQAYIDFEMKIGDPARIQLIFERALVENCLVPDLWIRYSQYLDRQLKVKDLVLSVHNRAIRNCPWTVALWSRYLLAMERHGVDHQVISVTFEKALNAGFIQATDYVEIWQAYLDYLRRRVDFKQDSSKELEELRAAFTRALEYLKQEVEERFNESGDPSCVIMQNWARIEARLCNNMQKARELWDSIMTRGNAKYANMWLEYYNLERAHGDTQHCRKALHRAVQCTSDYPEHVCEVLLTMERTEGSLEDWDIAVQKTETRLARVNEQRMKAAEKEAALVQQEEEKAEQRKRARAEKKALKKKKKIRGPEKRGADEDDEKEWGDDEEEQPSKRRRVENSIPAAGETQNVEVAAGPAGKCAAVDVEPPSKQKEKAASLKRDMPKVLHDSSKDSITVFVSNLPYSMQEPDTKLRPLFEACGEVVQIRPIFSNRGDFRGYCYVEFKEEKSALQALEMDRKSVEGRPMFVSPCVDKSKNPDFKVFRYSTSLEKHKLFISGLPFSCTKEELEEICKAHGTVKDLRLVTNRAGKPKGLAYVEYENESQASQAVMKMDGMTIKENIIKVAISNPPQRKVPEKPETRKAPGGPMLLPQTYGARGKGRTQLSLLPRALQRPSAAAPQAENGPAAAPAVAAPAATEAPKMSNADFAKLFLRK
Summary of the method: as §1

Q7Z460 = molecular target: T17, Q7Z460 (Homo sapiens, UniProt Q7Z460)
T17 construct: endogenous in cells; host or cells: DM93 cells (SILAC), live-cell treatment
Summary of the method: as §1

Q15293 = molecular target: T18, Q15293 (Homo sapiens, UniProt Q15293)
T18 construct: performing SuTEx compound screening directly in cells; endogenous in cells; host or cells: DM93 cells (SILAC), soluble fraction
Summary of the method: as §1

O=C(NC1CCCCC1)c1ccc(S(=O)(=O)n2cncn2)cc1 [HHS-0301, 4-((1H-1,2,4-triazol-1-yl)sulfonyl)-N-cyclohexylbenzamide]
liganded tyrosine site 78 (P78537): HHS0301.Y|HHS0401.Y|HHS0701.Y (tyrosine sites that showed >80% reductions (SR >5) in probe labeling in cells treated with compounds (liganded sites)) | liganded tyrosine site 134 (P31948): HHS0301.Y (tyrosine sites that showed >80% reductions (SR >5) in probe labeling in cells treated with compounds (liganded sites))

O=C(c1ccc(S(=O)(=O)n2cncn2)cc1)N1CCC(c2ccccc2)CC1 [HHS-0701, (4-((1H-1,2,4-triazol-1-yl)sulfonyl)phenyl)(4-phenylpiperidin-1-yl)methanone]
liganded tyrosine site 261 (Q92620): HHS0701.Y (tyrosine sites that showed >80% reductions (SR >5) in probe labeling in cells treated with compounds (liganded sites)) | liganded tyrosine site 249 (O00267): HHS0701.Y (tyrosine sites that showed >80% reductions (SR >5) in probe labeling in cells treated with compounds (liganded sites))

O=C(NCC1CC1)c1ccc(S(=O)(=O)n2cncn2)cc1 [HHS-0201, 4-((1H-1,2,4-triazol-1-yl)sulfonyl)-N-(cyclopropylmethyl)benzamide]
liganded tyrosine site 81 (P62847): HHS0201.Y (tyrosine sites that showed >80% reductions (SR >5) in probe labeling in cells treated with compounds (liganded sites)) | liganded tyrosine site 267 (P56945): HHS0201.Y (tyrosine sites that showed >80% reductions (SR >5) in probe labeling in cells treated with compounds (liganded sites)) | liganded tyrosine site 864 (P07814): HHS0201.Y (tyrosine sites that showed >80% reductions (SR >5) in probe labeling in cells treated with compounds (liganded sites))

O=C(NCc1ccccc1)c1ccc(S(=O)(=O)n2cncn2)cc1 [HHS-0401, 4-((1H-1,2,4-triazol-1-yl)sulfonyl)-N-benzylbenzamide]
liganded tyrosine site 233 (P12268): HHS0401.Y (tyrosine sites that showed >80% reductions (SR >5) in probe labeling in cells treated with compounds (liganded sites)) | liganded tyrosine site 367 (P26358): HHS0401.Y (tyrosine sites that showed >80% reductions (SR >5) in probe labeling in cells treated with compounds (liganded sites)) | liganded tyrosine site 244 (P36507): HHS0401.Y (tyrosine sites that showed >80% reductions (SR >5) in probe labeling in cells treated with compounds (liganded sites)) | liganded tyrosine site 148 (P62979): HHS0401.Y (tyrosine sites that showed >80% reductions (SR >5) in probe labeling in cells treated with compounds (liganded sites)) | liganded tyrosine site 262 (Q14914): HHS0401.Y (tyrosine sites that showed >80% reductions (SR >5) in probe labeling in cells treated with compounds (liganded sites))

O=C(NC1CC1)c1ccc(S(=O)(=O)n2cncn2)cc1 [HHS-0101, 4-((1H-1,2,4-triazol-1-yl)sulfonyl)-N-cyclopropylbenzamide]
liganded tyrosine site 430 (P26599): HHS0101.Y|HHS0201.Y|HHS0401.Y (tyrosine sites that showed >80% reductions (SR >5) in probe labeling in cells treated with compounds (liganded sites)) | liganded tyrosine site 183 (P68104): HHS0101.Y (tyrosine sites that showed >80% reductions (SR >5) in probe labeling in cells treated with compounds (liganded sites)) | liganded tyrosine site 145 (Q8WVJ2): HHS0101.Y (tyrosine sites that showed >80% reductions (SR >5) in probe labeling in cells treated with compounds (liganded sites)) | liganded tyrosine site 541 (Q15020): HHS0101.Y|HHS0201.Y|HHS0301.Y|HHS0401.Y|HHS0701.Y (tyrosine sites that showed >80% reductions (SR >5) in probe labeling in cells treated with compounds (liganded sites)) | liganded tyrosine site 1267 (Q7Z460): HHS0101.Y|HHS0301.Y|HHS0401.Y (tyrosine sites that showed >80% reductions (SR >5) in probe labeling in cells treated with compounds (liganded sites)) | liganded tyrosine site 320 (Q15293): HHS0101.Y (tyrosine sites that showed >80% reductions (SR >5) in probe labeling in cells treated with compounds (liganded sites))
